Where two headings read alike, the source gives them in different places.

A word on the IC50: it is the concentration that gives 50% inhibition. Usually Kd stands for a measure of binding affinity in units of concentration.

The target in experiment [1] is T1, lipoic acid groups of the α-ketoglutarate dehydrogenase complex (Sus scrofa, UniProt Q9N0F1).
T1 sequence (Q9N0F1 69-455): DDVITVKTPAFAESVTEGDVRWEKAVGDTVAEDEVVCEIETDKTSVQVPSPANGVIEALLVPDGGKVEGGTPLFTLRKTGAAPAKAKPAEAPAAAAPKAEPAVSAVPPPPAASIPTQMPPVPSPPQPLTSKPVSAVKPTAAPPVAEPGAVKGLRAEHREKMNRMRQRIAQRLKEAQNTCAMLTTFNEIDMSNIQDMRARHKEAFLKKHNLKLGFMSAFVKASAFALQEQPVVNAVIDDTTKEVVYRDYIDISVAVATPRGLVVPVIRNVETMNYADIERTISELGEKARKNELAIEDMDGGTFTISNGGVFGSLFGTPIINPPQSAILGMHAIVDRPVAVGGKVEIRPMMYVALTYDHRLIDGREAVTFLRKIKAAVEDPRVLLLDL
It is filed as binding, porcine.

Experiment [2] deals with T2, lipoic acid groups of the pyruvate dehydrogenase complex (Sus scrofa, UniProt A0A4X1TBD2).
T2 sequence (A0A4X1TBD2 1-647): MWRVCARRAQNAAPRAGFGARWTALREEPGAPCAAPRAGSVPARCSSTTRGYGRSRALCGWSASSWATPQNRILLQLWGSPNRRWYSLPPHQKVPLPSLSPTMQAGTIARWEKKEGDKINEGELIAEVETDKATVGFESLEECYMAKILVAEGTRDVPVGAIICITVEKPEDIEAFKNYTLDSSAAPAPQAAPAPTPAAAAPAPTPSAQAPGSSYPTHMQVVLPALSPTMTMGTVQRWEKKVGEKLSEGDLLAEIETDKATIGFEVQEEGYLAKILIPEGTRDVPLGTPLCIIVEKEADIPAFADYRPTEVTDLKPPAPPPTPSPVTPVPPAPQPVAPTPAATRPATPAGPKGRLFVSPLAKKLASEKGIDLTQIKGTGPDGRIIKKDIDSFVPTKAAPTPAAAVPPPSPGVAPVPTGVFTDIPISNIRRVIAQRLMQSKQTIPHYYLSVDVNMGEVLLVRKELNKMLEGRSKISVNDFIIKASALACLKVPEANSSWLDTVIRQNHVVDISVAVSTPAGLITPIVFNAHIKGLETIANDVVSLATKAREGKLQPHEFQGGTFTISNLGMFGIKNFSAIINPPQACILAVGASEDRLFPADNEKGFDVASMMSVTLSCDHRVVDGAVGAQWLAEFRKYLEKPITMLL
The class given is binding, porcine.

Experiment [3] concerns the target pyruvate dehydrogenase (PDH) complex. It is filed as biochemical, porcine.
In experiment [4] the target is α-ketoglutarate dehydrogenase (KGDH) complex (Sus scrofa, UniProt Q9N0F1). The class given is biochemical, porcine.
Experiment [5] deals with PDH complex. As to conditions: read-out: IC50, PDH inhibition; cited from earlier work.
In experiment [6] the target is reduced thiol groups. As to conditions: read-out: dissociation constants (Kd) for reduced thiol groups; cited from earlier work.

As to Dimethylarsonous iodide [DMA ^3+], the “Loss of recognition of lipoic acid groups by anti-lipoic acid antibody, KGDH” value in experiment [1] was “strong interference”. Also, the “Loss of recognition of lipoic acid groups by anti-lipoic acid antibody, PDH” value in experiment [2] is on record as “strong interference”.
With Sodium arsenite [As ^3+], the “50% enzyme inhibition (IC50), PDH, half hour incubation” value in experiment [3] is recorded as 704 ppb. Moreover, the “50% enzyme inhibition (IC50), PDH, one hour incubation” value in experiment [3] was 267 ppb. Besides, the IC50 is 9.39 µM in experiment [3] (read-out: 50% enzyme inhibition (IC50), PDH, half hour incubation); 3.56 µM in experiment [3] (read-out: 50% enzyme inhibition (IC50), PDH, one hour incubation); 9.78 µM in experiment [4] (read-out: 50% enzyme inhibition (IC50), KGDH, half hour incubation); 6.51 µM in experiment [4] (read-out: 50% enzyme inhibition (IC50), KGDH, one hour incubation); 116 µM in experiment [5]. Besides, the “50% enzyme inhibition (IC50), KGDH, half hour incubation” value in experiment [4] amounted to 733 ppb. The “50% enzyme inhibition (IC50), KGDH, one hour incubation” value in experiment [4] is listed as 488 ppb. In addition, the Kd in experiment [6] was 5 to 124 µM.

The values above are taken from PMC2685281 (Journal of organometallic chemistry, 2009).
